The target in assay [1] is T1, Serine/threonine-protein kinase ULK3 (Homo sapiens) (UniProt Q6PHR2).
T1 sequence (whole entry): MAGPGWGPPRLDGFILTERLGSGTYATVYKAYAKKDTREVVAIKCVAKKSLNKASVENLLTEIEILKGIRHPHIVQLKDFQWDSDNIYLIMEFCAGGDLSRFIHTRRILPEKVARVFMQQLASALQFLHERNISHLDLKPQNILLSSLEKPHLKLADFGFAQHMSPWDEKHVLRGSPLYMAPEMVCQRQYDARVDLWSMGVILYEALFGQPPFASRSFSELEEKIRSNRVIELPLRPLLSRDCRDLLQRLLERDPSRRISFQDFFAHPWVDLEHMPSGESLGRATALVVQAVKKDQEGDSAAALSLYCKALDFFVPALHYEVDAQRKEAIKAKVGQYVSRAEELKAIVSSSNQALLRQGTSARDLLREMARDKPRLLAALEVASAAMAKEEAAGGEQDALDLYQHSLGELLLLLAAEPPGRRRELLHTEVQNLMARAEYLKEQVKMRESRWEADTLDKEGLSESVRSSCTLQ
The settings on record: Compound concentration 1000.0 nM.

Assay [2] concerns the target Mu-type opioid receptor (Homo sapiens) (UniProt P35372). The settings on record: Compound concentration 10.0 uM.
Assay [3] has as its target Serine/threonine-protein kinase SBK1 (Homo sapiens) (UniProt Q52WX2). As to conditions: Compound concentration 1000.0 nM.
The target of assay [4] is Citron Rho-interacting kinase (Homo sapiens) (UniProt O14578). The settings on record: Compound concentration 1000.0 nM.
In assay [5] the target is Death-associated protein kinase 2 (Homo sapiens) (UniProt Q9UIK4). The settings on record: Compound concentration 1000.0 nM.
Chain of Death-associated protein kinase 2 (Homo sapiens) (Q9UIK4 whole entry, looked up): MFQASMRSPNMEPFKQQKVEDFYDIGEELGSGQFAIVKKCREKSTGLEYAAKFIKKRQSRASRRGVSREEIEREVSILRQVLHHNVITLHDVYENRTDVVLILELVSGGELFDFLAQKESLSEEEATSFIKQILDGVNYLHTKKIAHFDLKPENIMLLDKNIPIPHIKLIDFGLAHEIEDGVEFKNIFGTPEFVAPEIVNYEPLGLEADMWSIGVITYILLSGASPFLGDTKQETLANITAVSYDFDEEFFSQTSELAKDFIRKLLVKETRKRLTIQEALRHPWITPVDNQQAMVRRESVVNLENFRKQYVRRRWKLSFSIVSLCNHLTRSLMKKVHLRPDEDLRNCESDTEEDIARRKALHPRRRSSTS
Assay [6] concerns the target Serine/threonine-protein kinase mTOR (Homo sapiens) (UniProt P42345). The settings on record: Compound concentration 1000.0 nM.
For assay [7], the target named is Mitogen-activated protein kinase kinase kinase 1 (Homo sapiens) (UniProt Q13233). As to conditions: Compound concentration 1000.0 nM.
Assay [8] addresses T2, Ephrin type-B receptor 3 (Homo sapiens) (UniProt P54753).
T2 sequence (whole entry): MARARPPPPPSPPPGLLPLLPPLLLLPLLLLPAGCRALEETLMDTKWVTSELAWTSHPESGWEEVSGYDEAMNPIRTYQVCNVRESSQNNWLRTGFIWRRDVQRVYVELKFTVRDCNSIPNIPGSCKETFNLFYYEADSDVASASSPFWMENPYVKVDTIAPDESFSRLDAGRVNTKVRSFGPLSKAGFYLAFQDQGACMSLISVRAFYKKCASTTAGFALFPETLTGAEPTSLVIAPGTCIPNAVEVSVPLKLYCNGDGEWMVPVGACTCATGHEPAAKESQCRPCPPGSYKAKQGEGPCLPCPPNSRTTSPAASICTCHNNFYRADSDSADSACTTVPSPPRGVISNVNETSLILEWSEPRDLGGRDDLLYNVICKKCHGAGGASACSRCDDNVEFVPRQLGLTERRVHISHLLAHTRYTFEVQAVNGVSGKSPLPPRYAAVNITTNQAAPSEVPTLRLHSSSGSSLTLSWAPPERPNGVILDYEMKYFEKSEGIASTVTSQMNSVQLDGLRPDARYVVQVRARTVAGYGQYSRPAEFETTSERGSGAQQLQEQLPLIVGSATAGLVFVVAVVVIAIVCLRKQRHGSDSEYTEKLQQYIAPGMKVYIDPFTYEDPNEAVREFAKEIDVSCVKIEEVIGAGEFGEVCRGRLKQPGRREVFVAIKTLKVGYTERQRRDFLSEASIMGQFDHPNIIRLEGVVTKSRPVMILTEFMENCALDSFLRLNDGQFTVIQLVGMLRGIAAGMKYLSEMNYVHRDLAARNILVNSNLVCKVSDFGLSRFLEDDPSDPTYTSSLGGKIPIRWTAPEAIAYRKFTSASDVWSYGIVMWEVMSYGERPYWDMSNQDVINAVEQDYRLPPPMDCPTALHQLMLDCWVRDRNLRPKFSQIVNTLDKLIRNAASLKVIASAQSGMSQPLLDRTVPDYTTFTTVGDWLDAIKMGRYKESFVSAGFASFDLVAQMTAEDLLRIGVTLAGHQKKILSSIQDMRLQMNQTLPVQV
The settings on record: Compound concentration 1000.0 nM.

The target in assay [9] is Receptor tyrosine-protein kinase erbB-3 (Homo sapiens) (UniProt P21860). As to conditions: Compound concentration 1000.0 nM.
Chain of Receptor tyrosine-protein kinase erbB-3 (Homo sapiens) (P21860 whole entry): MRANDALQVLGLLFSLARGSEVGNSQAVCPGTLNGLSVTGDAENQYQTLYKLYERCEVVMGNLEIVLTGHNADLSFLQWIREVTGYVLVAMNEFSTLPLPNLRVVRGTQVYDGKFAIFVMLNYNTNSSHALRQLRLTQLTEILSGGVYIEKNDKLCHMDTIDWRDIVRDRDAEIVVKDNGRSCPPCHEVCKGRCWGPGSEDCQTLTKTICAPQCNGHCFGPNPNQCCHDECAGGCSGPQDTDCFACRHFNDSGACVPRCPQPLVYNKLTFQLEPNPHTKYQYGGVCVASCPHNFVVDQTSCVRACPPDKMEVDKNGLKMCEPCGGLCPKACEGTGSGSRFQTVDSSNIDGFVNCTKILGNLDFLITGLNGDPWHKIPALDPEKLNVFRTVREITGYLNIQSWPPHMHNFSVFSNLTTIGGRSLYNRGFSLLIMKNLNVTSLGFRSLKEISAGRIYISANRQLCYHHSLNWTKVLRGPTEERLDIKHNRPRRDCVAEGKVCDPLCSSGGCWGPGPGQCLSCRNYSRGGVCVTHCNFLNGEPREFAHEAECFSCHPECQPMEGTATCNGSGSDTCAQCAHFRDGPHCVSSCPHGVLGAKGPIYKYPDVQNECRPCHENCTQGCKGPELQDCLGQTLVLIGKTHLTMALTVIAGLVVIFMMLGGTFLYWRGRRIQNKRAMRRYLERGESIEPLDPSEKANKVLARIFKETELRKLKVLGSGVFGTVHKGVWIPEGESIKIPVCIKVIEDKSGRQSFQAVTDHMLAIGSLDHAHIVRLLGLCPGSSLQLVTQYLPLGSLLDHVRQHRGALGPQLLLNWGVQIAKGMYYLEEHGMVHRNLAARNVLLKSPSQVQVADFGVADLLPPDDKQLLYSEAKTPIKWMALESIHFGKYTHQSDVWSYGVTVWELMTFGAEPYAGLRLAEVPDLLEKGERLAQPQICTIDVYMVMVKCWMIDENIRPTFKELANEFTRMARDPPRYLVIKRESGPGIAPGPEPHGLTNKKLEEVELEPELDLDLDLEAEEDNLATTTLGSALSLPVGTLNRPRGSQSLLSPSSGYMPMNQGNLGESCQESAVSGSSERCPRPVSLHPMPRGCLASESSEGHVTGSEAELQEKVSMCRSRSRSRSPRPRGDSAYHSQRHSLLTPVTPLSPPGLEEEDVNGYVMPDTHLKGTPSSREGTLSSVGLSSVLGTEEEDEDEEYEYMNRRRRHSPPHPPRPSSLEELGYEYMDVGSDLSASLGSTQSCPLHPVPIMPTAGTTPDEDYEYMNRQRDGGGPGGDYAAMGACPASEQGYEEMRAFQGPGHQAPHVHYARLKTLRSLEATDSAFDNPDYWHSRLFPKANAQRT
The target in assay [10] is Activin receptor type-2B (Homo sapiens) (UniProt Q13705). The settings on record: Compound concentration 1000.0 nM.
Chain of Activin receptor type-2B (Homo sapiens) (Q13705 whole entry): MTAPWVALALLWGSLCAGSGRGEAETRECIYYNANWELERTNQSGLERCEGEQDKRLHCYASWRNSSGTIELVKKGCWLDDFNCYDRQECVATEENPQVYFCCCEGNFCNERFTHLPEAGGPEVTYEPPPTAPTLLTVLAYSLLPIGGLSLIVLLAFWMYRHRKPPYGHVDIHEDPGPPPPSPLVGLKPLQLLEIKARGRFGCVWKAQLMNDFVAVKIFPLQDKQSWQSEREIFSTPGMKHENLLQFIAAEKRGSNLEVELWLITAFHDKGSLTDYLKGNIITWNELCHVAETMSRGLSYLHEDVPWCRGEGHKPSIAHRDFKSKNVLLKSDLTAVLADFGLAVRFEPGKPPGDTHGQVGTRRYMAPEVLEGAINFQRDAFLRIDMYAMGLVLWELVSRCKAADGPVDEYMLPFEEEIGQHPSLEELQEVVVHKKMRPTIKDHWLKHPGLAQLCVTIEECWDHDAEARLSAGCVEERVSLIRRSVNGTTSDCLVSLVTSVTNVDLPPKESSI
Assay [11] deals with Tyrosine-protein kinase receptor UFO (Homo sapiens) (UniProt P30530). As to conditions: Compound concentration 1000.0 nM.
Chain of Tyrosine-protein kinase receptor UFO (Homo sapiens) (P30530 whole entry): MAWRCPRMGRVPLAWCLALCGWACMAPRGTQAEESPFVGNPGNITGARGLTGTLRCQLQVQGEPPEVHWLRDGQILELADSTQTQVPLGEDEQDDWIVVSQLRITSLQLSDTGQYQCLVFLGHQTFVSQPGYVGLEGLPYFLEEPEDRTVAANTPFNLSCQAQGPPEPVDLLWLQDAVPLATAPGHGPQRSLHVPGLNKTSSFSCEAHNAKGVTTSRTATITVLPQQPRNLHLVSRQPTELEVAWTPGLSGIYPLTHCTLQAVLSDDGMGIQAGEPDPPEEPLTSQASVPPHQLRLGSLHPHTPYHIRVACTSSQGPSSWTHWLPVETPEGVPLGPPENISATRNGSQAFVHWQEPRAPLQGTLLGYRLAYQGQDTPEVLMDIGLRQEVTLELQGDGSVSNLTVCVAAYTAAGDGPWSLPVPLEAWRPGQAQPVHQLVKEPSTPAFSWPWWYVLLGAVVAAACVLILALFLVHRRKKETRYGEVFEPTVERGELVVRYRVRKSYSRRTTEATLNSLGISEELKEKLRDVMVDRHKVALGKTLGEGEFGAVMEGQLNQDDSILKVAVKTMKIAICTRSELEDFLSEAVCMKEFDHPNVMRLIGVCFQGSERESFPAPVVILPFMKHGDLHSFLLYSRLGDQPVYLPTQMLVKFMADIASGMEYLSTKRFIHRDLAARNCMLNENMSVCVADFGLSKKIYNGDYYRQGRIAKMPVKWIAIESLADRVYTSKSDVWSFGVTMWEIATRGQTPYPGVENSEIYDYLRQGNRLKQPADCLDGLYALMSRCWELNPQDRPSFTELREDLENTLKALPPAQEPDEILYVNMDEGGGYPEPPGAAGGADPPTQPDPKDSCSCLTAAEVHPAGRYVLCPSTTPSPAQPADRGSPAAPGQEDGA
Assay [12] addresses RAF proto-oncogene serine/threonine-protein kinase (Homo sapiens) (UniProt P04049). As to conditions: Compound concentration 1000.0 nM.
In assay [13] the target is Alpha-2C adrenergic receptor (Homo sapiens) (UniProt P18825). The settings on record: Compound concentration 10.0 uM.
For assay [14], the target named is Serine/threonine-protein kinase 36 (Homo sapiens) (UniProt Q9NRP7). As to conditions: Compound concentration 1000.0 nM.
In assay [15] the target is RAC-gamma serine/threonine-protein kinase (Homo sapiens) (UniProt Q9Y243). The settings on record: Compound concentration 1000.0 nM.
In assay [16] the test system is Receptor-type tyrosine-protein kinase FLT3 (Homo sapiens), P36888 [N841I]. As to conditions: Compound concentration 1000.0 nM.
For assay [17], the target named is NT-3 growth factor receptor (Homo sapiens) (UniProt Q16288). The settings on record: Compound concentration 1000.0 nM.
Chain of NT-3 growth factor receptor (Homo sapiens) (Q16288 32-839 limits assumed): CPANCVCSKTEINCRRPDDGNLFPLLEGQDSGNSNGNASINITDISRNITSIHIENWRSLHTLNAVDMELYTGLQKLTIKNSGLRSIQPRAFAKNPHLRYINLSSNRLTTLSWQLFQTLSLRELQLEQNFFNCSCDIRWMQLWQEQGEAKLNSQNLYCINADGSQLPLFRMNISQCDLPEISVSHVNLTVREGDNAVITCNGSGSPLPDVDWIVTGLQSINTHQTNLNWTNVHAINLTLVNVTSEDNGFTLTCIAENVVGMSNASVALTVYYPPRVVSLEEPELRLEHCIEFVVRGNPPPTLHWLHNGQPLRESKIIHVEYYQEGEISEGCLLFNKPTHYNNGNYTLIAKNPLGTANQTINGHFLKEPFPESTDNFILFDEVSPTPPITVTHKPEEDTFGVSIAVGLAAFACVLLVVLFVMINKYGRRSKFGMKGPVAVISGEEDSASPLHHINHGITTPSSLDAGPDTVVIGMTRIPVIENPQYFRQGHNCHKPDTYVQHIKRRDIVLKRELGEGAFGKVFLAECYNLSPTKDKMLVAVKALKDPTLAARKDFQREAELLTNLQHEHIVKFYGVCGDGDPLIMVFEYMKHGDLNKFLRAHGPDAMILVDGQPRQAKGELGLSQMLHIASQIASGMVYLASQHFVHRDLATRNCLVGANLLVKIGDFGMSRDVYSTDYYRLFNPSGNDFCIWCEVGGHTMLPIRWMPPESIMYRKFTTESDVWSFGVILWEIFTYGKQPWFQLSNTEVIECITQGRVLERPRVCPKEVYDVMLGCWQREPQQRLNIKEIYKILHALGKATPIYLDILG
In assay [18] the target is Receptor-type tyrosine-protein kinase FLT3 (Homo sapiens) (UniProt P36888). As to conditions: Compound concentration 1000.0 nM.

This passage reports residual activity and inhibition results from ChEMBL document CHEMBL4507319 (2021).

Chain of RAF proto-oncogene serine/threonine-protein kinase (Homo sapiens) (P04049 whole entry): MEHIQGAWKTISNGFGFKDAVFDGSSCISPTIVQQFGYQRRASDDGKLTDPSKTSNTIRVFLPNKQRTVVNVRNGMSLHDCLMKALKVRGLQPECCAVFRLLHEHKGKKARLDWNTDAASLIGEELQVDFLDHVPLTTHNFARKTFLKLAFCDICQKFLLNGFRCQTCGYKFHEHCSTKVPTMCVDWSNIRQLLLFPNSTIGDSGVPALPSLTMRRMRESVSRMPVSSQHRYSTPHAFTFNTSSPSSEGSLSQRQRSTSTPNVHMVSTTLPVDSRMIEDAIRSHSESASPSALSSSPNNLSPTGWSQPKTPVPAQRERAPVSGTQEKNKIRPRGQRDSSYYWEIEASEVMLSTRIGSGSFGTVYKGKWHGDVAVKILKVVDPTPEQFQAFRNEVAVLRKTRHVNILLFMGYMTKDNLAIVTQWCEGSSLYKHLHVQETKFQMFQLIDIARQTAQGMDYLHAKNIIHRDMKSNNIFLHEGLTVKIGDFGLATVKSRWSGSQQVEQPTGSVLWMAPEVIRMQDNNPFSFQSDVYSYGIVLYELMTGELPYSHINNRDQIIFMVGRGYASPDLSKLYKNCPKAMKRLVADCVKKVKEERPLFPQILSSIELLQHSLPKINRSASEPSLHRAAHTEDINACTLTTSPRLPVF
Chain of Mu-type opioid receptor (Homo sapiens) (P35372 whole entry): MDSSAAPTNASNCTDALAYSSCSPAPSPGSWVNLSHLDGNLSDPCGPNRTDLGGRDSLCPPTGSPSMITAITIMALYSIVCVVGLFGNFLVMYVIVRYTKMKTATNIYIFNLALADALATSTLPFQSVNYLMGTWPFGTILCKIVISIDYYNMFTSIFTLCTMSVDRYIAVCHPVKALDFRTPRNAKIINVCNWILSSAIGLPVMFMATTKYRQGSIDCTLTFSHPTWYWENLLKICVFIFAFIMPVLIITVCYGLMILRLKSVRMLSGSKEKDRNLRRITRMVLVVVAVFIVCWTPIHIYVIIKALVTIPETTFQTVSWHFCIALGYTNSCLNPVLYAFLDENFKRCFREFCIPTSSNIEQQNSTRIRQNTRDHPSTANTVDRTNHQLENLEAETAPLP

The inhibition is the relative decrease from the control value, in per cent. As for `CC1=C(C#N)C(c2ccc3c(c2)c(NC(=O)c2ccccc2C)nn3C)C(C#N)=C(C)N1` [BAY-974], the residual activity in assay [1] was 84%; in [3] it was 98%; in [4], 55%; in assay [5] it was 98%; in [6], 75%; in assay [7], 51%. Also, the residual activity in assay [8] was 99%; in assay [9] it was 100%; in [10], 100%; in assay [11], 100%; in assay [12], 100%; in [14], 87%. The residual activity was 93% in [15], 74% in [16], 83% in assay [17] and 96% in [18]. Moreover, the inhibition in assay [2] is 13.7%; in [13], 10.2%.
In the case of `CCc1ccccc1C(=O)Nc1n[nH]c2c(C)c(F)c(C3C(C#N)=C(C)N(C)C(C)=C3C#N)cc12` [BAY-3827], the residual activity was 82% in assay [1]; 100% in assay [3]; 90% in assay [4]; 63% in assay [5]; 100% in assay [6]; 100% in assay [7]. For the same molecule, the residual activity in assay [8] was 57%; in assay [9], 91%; in [10] it was 99%; in assay [11], 100%; in [12] it was 63%; in assay [14] it was 100%. The residual activity in assay [15] was 100%; in assay [16] it was 0%; in assay [17], 100%; in assay [18], 88%. Also, the inhibition was 30.5% in assay [2] and 10% in assay [13].
